pEC50: −log10 of the molar value.

One test relates to ankle plantarflexor muscle contractile force. Nature of the test: Rat isometric ankle plantarflexor muscle force. The test is classed as in vivo, Sprague Dawley rats. To be noted: estimated concentration at which muscle force is 50% of pre-dose maximum tension, 30 Hz stimulation, continuous intravenous infusion over sixty minutes, female rats. The text has this: Female Sprague Dawley rats were placed under a stable anesthesic plane with inhaled isoflurane (1-5%). One incision was made on the mid-thigh region of the right leg to expose the sciatic nerve. To prevent co-contraction of the ankle dorsiflexors, an additional incision was made lateral to the patella to isolate and sever the peroneal nerve. Rats were then placed on a temperature-maintained in situ muscle analysis rig (Aurora Scientific, Model 806C). The knee was immobilized in a clamp between two sharpened screws and the foot was taped to a footplate attached to a force transducer (Aurora Scientific, Ontario, Canada). Stainless steel needle electrodes (0.10 mm) were hooked around the exposed sciatic nerve. Isometric ankle plantarflexor muscle contractile force was assessed with the ankle joint at 90° flexion. A 30 Hz electrical stimulation (under supramaximal voltage conditions) was applied to the nerve and the resulting muscle force was recorded via a servomotor. A pre-dose 30 Hz force response was established as the baseline force. A pre-dose 150 Hz force response was established as the maximum isometric force. Compounds were formulated in 50% polyethylene glycol (PEG): 16% Cavitron: 10% dimethylacetamide (DMA) and administered by continuous intravenous infusion over a sixty minute period. The muscle force response to compound was measured every two minutes over the dosing period. Data were reported as an estimated EC50 value, which is the concentration at which muscle force is 50% of the pre-dose maximum tension. In Table 4, “Example Compound” refers to the compound labeled with the same number in Table 2.
Consider `CCC[C@H]1C(=O)Nc2ccccc2N1C(=O)c1cnn(C)c1` [Compound 13, (S)-4-(1-methyl-1H-pyrazole-4-carbonyl)-3-propyl-3,4-dihydroquinoxalin-2(1H)-one], for which the negative-log EC50 (pEC50) is 4.80.

Turning to `CC(C)[C@H]1C(=O)Nc2cnccc2N1C(=O)c1cnn(C)c1` [Compound 88, (S)-2-isopropyl-1-(1-methyl-1H-pyrazole-4-carbonyl)-1,4-dihydropyrido[3,4-b]pyrazin-3(2H)-one], the negative logarithm of the EC50 (pEC50) was 4.70.

As for `CC[C@H](C)[C@H]1C(=O)Nc2cnccc2N1C(=O)c1cnn(C)c1` [Compound 89, (S)-2-((S)-sec-butyl)-1-(1-methyl-1H-pyrazole-4-carbonyl)-1,4-dihydropyrido[3,4-b]pyrazin-3(2H)-one], the pEC50 was 4.62.

A further test deals with rabbit skeletal myofibrils (approximately 90% fast fibers). In words: Activation of fast skeletal myofibrils (PUMA coupled-enzyme ATPase assay). The test is classed as biochemical. To be noted: concentration at which the compound increased the enzymatic activity by 40%; calcium at pCa25; PM12 buffer pH 6.8. In short, it runs like this:
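Rabbit psoas myofibrils (Triton-washed, ~90% fast fibers) at calcium giving 25% of maximal ATPase rate (pCa25). ADP regenerated via pyruvate kinase/lactate dehydrogenase coupling, NADH oxidation read as absorbance at 340 nm. Buffer 12 mM PIPES, 2 mM MgCl2, 1 mM DTT, pH 6.8.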
Consider `CCC[C@H]1C(=O)Nc2ccccc2N1C(=O)c1cnn(C)c1` [Compound 13, (S)-4-(1-methyl-1H-pyrazole-4-carbonyl)-3-propyl-3,4-dihydroquinoxalin-2(1H)-one], for which the AC1.4 was found to be 0.13 µM.

Turning to `CC(C)[C@H]1C(=O)Nc2cnccc2N1C(=O)c1cnn(C)c1` [Compound 88, (S)-2-isopropyl-1-(1-methyl-1H-pyrazole-4-carbonyl)-1,4-dihydropyrido[3,4-b]pyrazin-3(2H)-one], the AC1.4 is 0.85 µM.

Take `CC[C@H](C)[C@H]1C(=O)Nc2cnccc2N1C(=O)c1cnn(C)c1` [Compound 89, (S)-2-((S)-sec-butyl)-1-(1-methyl-1H-pyrazole-4-carbonyl)-1,4-dihydropyrido[3,4-b]pyrazin-3(2H)-one]: the AC1.4 was 0.23 µM.

For the molecule `CC[C@H](C)[C@H]1C(=O)Nc2ccccc2N1C(=O)N1CCCC1` [Compound 104, (S)-3-((S)-sec-butyl)-4-(pyrrolidine-1-carbonyl)-3,4-dihydroquinoxalin-2(1H)-one], the AC1.4 worked out at 1.31 µM.

Consider `CC[C@H](C)[C@H]1C(=O)Nc2ccccc2N1C(=O)NCCO` [Compound 105, (S)-2-((S)-sec-butyl)-N-(2-hydroxyethyl)-3-oxo-3,4-dihydroquinoxaline-1(2H)-carboxamide], for which the AC1.4 is 2.23 µM.

As to `CC[C@H](C)[C@H]1C(=O)Nc2ccccc2N1C(=O)N1CC[C@H](O)C1` [Compound 106, (S)-3-((S)-sec-butyl)-4-((S)-3-hydroxypyrrolidine-1-carbonyl)-3,4-dihydroquinoxalin-2(1H)-one], the AC1.4 came to 1.77 µM.

In the case of `CC[C@H](C)[C@H]1C(=O)Nc2ccccc2N1C(=O)N1CC[C@H](CO)C1` [Compound 107, (S)-3-((S)-sec-butyl)-4-((S)-3-(hydroxymethyl)pyrrolidine-1-carbonyl)-3,4-dihydroquinoxalin-2(1H)-one], the AC1.4 came to 0.44 µM.

For the molecule `CC[C@H](C)[C@H]1C(=O)Nc2ccccc2N1C(=O)N1CC[C@@H](CO)C1` [Compound 108, (S)-3-((S)-sec-butyl)-4-((R)-3-(hydroxymethyl)pyrrolidine-1-carbonyl)-3,4-dihydroquinoxalin-2(1H)-one], the AC1.4 was 2.77 µM.

On to `CC[C@H](C)[C@H]1C(=O)Nc2ccccc2N1C(=O)CO` [Compound 109, (S)-3-((S)-sec-butyl)-4-(2-hydroxyacetyl)-3,4-dihydroquinoxalin-2(1H)-one], for which the AC1.4 was 1.51 µM.

For `CC[C@H](C)[C@H]1C(=O)Nc2ccccc2N1C(=O)CCO` [Compound 110, (S)-3-((S)-sec-butyl)-4-(3-hydroxypropanoyl)-3,4-dihydroquinoxalin-2(1H)-one], the AC1.4 was 1.18 µM.

For `CC[C@H](C)[C@H]1C(=O)Nc2ccccc2N1C(=O)N1CC(CO)C1` [Compound 111, (S)-3-((S)-sec-butyl)-4-(3-(hydroxymethyl)azetidine-1-carbonyl)-3,4-dihydroquinoxalin-2(1H)-one], the AC1.4 was 2.06 µM.

On to `CC[C@H](C)[C@H]1C(=O)Nc2ccccc2N1C(=O)N1CC(F)C1` [Compound 112, (S)-3-((S)-sec-butyl)-4-(3-fluoroazetidine-1-carbonyl)-3,4-dihydroquinoxalin-2(1H)-one], for which the AC1.4 was 1.01 µM.

Turning to `CC[C@H](C)[C@H]1C(=O)Nc2ccc(F)cc2N1C(N)=O` [Compound 113, (S)-2-((S)-sec-butyl)-7-fluoro-3-oxo-3,4-dihydroquinoxaline-1(2H)-carboxamide], the AC1.4 was 2.01 µM.

As for `CC[C@H](C)[C@H]1C(=O)Nc2ccccc2N1C(=O)N1CCC[C@H](O)C1` [Compound 114, (S)-3-((S)-sec-butyl)-4-((S)-3-hydroxypiperidine-1-carbonyl)-3,4-dihydroquinoxalin-2(1H)-one], the AC1.4 came out at 1.69 µM.

Take `CC[C@H](C)[C@H]1C(=O)Nc2ccccc2N1C(=O)N(C)CCCO` [Compound 115, (S)-2-((S)-sec-butyl)-N-(3-hydroxypropyl)-N-methyl-3-oxo-3,4-dihydroquinoxaline-1(2H)-carboxamide]: the AC1.4 stood at 2.29 µM.

As to `CC[C@H](C)[C@H]1C(=O)Nc2ccccc2N1C(=O)N1CCC[C@H](CO)C1` [Compound 116, (S)-3-((S)-sec-butyl)-4-((S)-3-(hydroxymethyl)piperidine-1-carbonyl)-3,4-dihydroquinoxalin-2(1H)-one], the AC1.4 was 0.83 µM.

For the molecule `CC[C@H](C)[C@H]1C(=O)Nc2ccccc2N1C(=O)N1CC(F)(F)C1` [Compound 117, (S)-3-((S)-sec-butyl)-4-(3,3-difluoroazetidine-1-carbonyl)-3,4-dihydroquinoxalin-2(1H)-one], the AC1.4 was 1.24 µM.

On to `CC[C@H](C)[C@H]1C(=O)Nc2ccccc2N1C(=O)OC` [Compound 125, methyl (S)-2-((S)-sec-butyl)-3-oxo-3,4-dihydroquinoxaline-1(2H)-carboxylate], for which the AC1.4 turned out to be 1.25 µM.

On to `CC[C@H](C)[C@H]1C(=O)Nc2ccccc2N1C(=O)N[C@H]1CCNC1` [Compound 126, (S)-2-((S)-sec-butyl)-3-oxo-N-((S)-pyrrolidin-3-yl)-3,4-dihydroquinoxaline-1(2H)-carboxamide], for which the AC1.4 worked out at 1.53 µM.

With `CC[C@H](C)[C@H]1C(=O)Nc2ccccc2N1C(=O)N[C@H]1CCN(C)C1` [Compound 129, (S)-2-((S)-sec-butyl)-N-((S)-1-methylpyrrolidin-3-yl)-3-oxo-3,4-dihydroquinoxaline-1(2H)-carboxamide], the AC1.4 worked out at 1.3 µM.

Consider `CC[C@H](C)[C@H]1C(=O)Nc2ccccc2N1C(=O)NC1CCN(CCO)CC1` [Compound 130, (S)-2-((S)-sec-butyl)-N-(1-(2-hydroxyethyl)piperidin-4-yl)-3-oxo-3,4-dihydroquinoxaline-1(2H)-carboxamide], for which the AC1.4 was found to be 2.13 µM.

Turning to `CC[C@H](C)[C@H]1C(=O)Nc2ccccc2N1C(=O)N(C)CCO` [Compound 131, (S)-2-((S)-sec-butyl)-N-(2-hydroxyethyl)-N-methyl-3-oxo-3,4-dihydroquinoxaline-1(2H)-carboxamide], the AC1.4 was 2.15 µM.

As to `CC[C@H](C)[C@H]1C(=O)Nc2ccccc2N1C(=O)N[C@H]1C[C@H](O)C1` [Compound 132, (S)-2-((S)-sec-butyl)-N-((1R,3S)-3-hydroxycyclobutyl)-3-oxo-3,4-dihydroquinoxaline-1(2H)-carboxamide], the AC1.4 is 0.64 µM.

Turning to `CC[C@H](C)[C@H]1C(=O)Nc2ccccc2N1C(=O)N[C@H]1C[C@@H](O)C1` [Compound 133, (S)-2-((S)-sec-butyl)-N-((1s,3R)-3-hydroxycyclobutyl)-3-oxo-3,4-dihydroquinoxaline-1(2H)-carboxamide], the AC1.4 was found to be 1.68 µM.

For orientation: pEC50 means the negative decadic logarithm of the EC50, by convention in mol/L.

Values taken from patent publication US20250296916A1, “BICYCLIC PIPERAZINONES AND THERAPEUTIC USES THEREOF” (Cytokinetics, Inc., priority 2022, published 2025).
